Reference: patent US20240197712A1, “TGF-BETA INHIBITION FOR IMMUNODEFICIENCY VIRUS REACTIVATION FROM LATENCY, ENHANCEMENT OF IMMUNODEFICIENCY VIRUS-SPECIFIC RESPONSES AND IMMUNODEFICIENCY VIRUS CURE” (Northwestern University, priority 2022, published 2024)

Experiments:
[1] = Plasma cytokines and chemokines (MSD 24-plex); format: in vivo, rhesus macaques
Experimental: Cytokines in plasma (at 1:2 dilution) were measured using the NHP Cytokine 24-Plex kit by Meso Scale Diagnostics (MSD) according to manufacturer instructions. Frozen PBMC collected at week 6 post-infection (pre-ART), right before the first galunisertib administration (BC1), at the end of cycle 1 (AC1) and at the end of cycle 3 (AC3) were thawed in AIM V medium (ThermoFisher) with benzonase (Sigma) and plated on a FluoroSpot (CTL) plate pre-activated with 70% Ethanol and IFN-γ, TNF-α and IL-2 capture solution. Gag, pol, and env 15-mer peptides (NIH AIDS Reagents program) were prepared at two times the final concentration of 2.5 μg/ml with co-stimulatory reagents anti-CD28 10 μg/ml and anti-CD49d 10 μg/ml and added to the cells in CTL-Test™ Medium. Parallel positive […] control of PMA (20 ng/ml) and ionomycin (200 ng/mL) or mock DMSO solution was also plated with the stimulatory reagents. PBMCs were added at 300,000 cells per well. After 24 hrs, the plate was washed, and incubated with detection and tertiary solutions and shipped to CTL for scanning and QC.

SIV-env [2] = assay: ImmunoPET/CT with 64Cu-DOTA-F(ab')2 p7D3 anti SIV-env probe, 1-2 weeks galunisertib; format: in vivo, rhesus macaques
Experimental: PET/CT imaging with a 64Cu-DOTA-F(ab′)2 p7D3 anti SIV-env probe were performed before Galunisertib treatment, after 7 days in all macaques and after 14 days in the macaques that were treated for 14 days. Briefly, a solution of 64Cu was incubated with DOTA-F(ab′)2 p7D3 antibody reconstituted with 50 μL of IM NH40Ac, pH of 5.5 and incubated for 1 hour at 37° C.; then purified by ultrafiltration in a desalting spin column (10K MWCO, Thermo Fisher) and finally eluted with sterile saline prior to injection. The labeled probe was injected IV via catheters, 24 h before PET-CT scanning. For taking PET/CT scans, the macaques were sedated with ketamine HCL (10 mg/kg), and/or telazol (4-8 mg/kg) via intramuscular and supplemented with ketamine (5 mg/Kg) as needed to perform the procedure. The macaque's body was immobilized in dorsal recumbency on the scanner table and PET/CT scans were acquired using a Philips Gemini TF64 PET/CT scanner. […]
PET Image analysis was performed using the MIM software. PETCT fusions were generated scaled according to calculated Standardized Uptake Values. […]
Regions of interest (ROI) were isolated using a combination of the Region Grow function and manual contouring on a representative scan. […] The signals of the whole body as well as within these ROI were quantified, and Max, Mean, and Total SUVs were calculated for further analyses. […]

SIV-env [3] = assay: Anti-envelope antibody titers (ELISA); format: in vivo, rhesus macaques; conditions: in 3 of the 7 macaques
Experimental: 96-well plates were coated with the SIV gp130 Recombinant protein 595 (AIDS reagents program, Division of AIDS, NIAID, NIH at 1 μg/ml in coating carbonate buffer 2 hours at room temperature (RT). After washing the plates 4 times with washing buffer, the plates were incubated in blocking buffer (2% BSA in PBS) overnight. Plates were washed and dilutions of test sera or control sera were added to the plate starting at 1:50. Sera were incubated at 37° C. for 30′ and plate washed and detected with anti-Rhesus IgG HRP (NHPRR) 30′ at 37° C. After washing and substrate incubation at RT for 30′ plates were read at 450/650 nm.

TGF-β = assay: Total TGF-β in plasma by ELISA; format: in vivo, rhesus macaques; conditions: baseline vs W1/2
Text: FIGS. 16A-16B. […] (FIG. 16A) The concentration of total TGF-β in the plasma before and after galunisertib as detected by ELISA is shown. Wilcoxon matched-pairs test was used to compare BL with W1/2 data, Significant p-value of α<0.05 (*) is shown. (FIG. 16B) No correlation is present between the concentration of TGF-β before treatment in blood and the change in Gut-SUVTot in each animal after galunisertib treatment (p=0.199; Person R=0.304).

U1 cells = assay: PMA-induced HIV reactivation in U1 cells, intracellular p24 staining; format: cell-based
Experimental: ACH2 cells and U1 cells were obtained through the NIH HIV Reagent Program, Division of AIDS, NIAID, NIH (contributed by Dr. Thomas Folks). Cells ([…]) were cultured in triplicates in RPMI with 10% FBS and Pen/Strep in presence of TGF-β1 (10 ng/ml R&D systems), TGF-β1 and galunisertib (1 μM MedChemExpress), galunisertib alone or mock treated. In the HIV latency reactivation conditions, PMA (Phorbol 12-myristate 13-acetate, SigmaAldrich) was added at 100 ng/ml together with galunisertib or TGF-β1. After 18 hrs, cells were stained intracellularly for p24 using the KC57 antibody (NIH HIV Reagent Program) as previously described (74).

[4] = test system: SIVmac239 gag and env peptides; assay: Anti-SIV T cell responses, intracellular cytokine staining; format: in vivo, rhesus macaques; conditions: before vs after treatment
Experimental: Frozen PBMC collected right before the first galunisertib administration and right after were thawed in AIM V medium (Thermo Fisher) plated on a plate pre-coated with 2.5 μg/ml goat anti mouse (GAM) IgGs and cross linked with 10 μg/ml anti-CD28 and anti-CD49d antibodies (Sigma Aldrich). Cells were stimulated either with SIVMAC239 GAG peptide pool (2 μg/ml) or with SIVMAC239 ENV peptide pool (2 μg/ml AIDS reagents program, Division of AIDS, NIAID, NIH) or the same volume of DMSO as baseline control. Pooled cells stimulated with 1 μg/ml PMA/Ionomycin were used a positive activation control. One hour later 10 μg/ml BFA and monensin (GolgiStop, BD Biosciences) were added to each well. After 5 hours, cells were transferred to a FACS plate and stained with the LIVE/DEAD Aqua viability dye (Thermo Fisher Scientific) and antibodies against cell surface and cytokines (Table 2).

Cc1cccc(-c2nn3c(c2-c2ccnc4ccc(C(N)=O)cc24)CCC3)n1 [galunisertib, Galunisertib]
concentrations of inflammatory chemokines and cytokines in plasma ([1]; before and after first 2 cycles and end of last cycle): no changes | IL-10 in plasma ([1]; end of the last cycle vs before treatment): small increase | macaques with clear extensive viral reactivation in the gut (PET signal) (SIV-env [2]; day 7 or 14 of treatment vs baseline): 3 of the 7 | macaques with increased SUVtot in PET/CT images in gut and lymph nodes (SIV-env [2]; oral galunisertib, aviremic long-term ART-treated macaques): 5 out of 7 | increase in the titer of SIV-env specific antibodies (SIV-env [3]): 0.5 to 1 Log | levels of TGF-β in blood after treatment (TGF-β): increases in the levels of TGF-β | frequency of p24-gag+ cells in unstimulated cultures (U1 cells; U1 cells, no PMA, TGF-β1 10 ng/ml or galunisertib 1 μM alone): slightly increase | frequency of p24-gag+ cells in the presence of exogenous TGF-β1 (U1 cells; U1 cells, TGF-β1 10 ng/ml + galunisertib 1 μM, with or without PMA): restores the frequency of p24-gag+ cells | frequency of p24-gag+ cells in PMA-stimulated U1 cells (U1 cells; galunisertib 1 μM alone, PMA 100 ng/ml): no impact | frequency of cells producing multiple cytokines [4]: no increase | frequency of IFN-γ producing CD4 and CD8 T cells ([4]; gag and env peptides stimulation): significant increase
